Measured values published in patent publication US11912693B2, “Compounds for modulating S1P1 activity and methods of using the same” (TREVENA, INC., priority 2017, dated 2024).

Assays:
[1] = biological target: T1, human sphingosine-1-phosphate receptor 1 (S1P1) (Homo sapiens (Human), UniProt P21453); test: Inhibition of cAMP production (HTRF cAMP HiRange), S1P1 CHO-K1 cells; type: cell-based; conditions: for Emax: CHO-K1, efficacy (SPAN) normalized to fingolimod, read-out: hS1P1 cAMP SPAN
In short: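 CHO-K1 cells stably co-expressing human S1P1 (C-terminal Prolink tag) and EA-β-arrestin2 were grown in AssayComplete Media 6 at 37° C. and 5% CO2, plated, and incubated overnight. Agonist-driven inhibition of intracellular cAMP was read by TR-FRET with the HTRF cAMP HiRange kit on a PheraStar reader. Potency is pEC50, and efficacy (SPAN) is normalized to fingolimod.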
Target sequence in this assay (P21453 whole entry, looked up): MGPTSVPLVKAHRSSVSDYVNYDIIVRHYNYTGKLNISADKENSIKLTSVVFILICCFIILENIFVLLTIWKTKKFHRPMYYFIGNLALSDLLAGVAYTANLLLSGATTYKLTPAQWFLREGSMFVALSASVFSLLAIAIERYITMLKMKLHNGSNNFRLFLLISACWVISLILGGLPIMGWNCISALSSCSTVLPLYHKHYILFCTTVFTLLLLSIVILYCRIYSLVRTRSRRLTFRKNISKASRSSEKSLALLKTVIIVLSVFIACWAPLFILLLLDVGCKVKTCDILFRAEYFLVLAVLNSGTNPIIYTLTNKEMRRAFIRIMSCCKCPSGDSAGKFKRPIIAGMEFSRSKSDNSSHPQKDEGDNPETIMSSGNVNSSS

[2] = biological target: T1, human sphingosine-1-phosphate receptor 1 (S1P1); test: β-Arrestin2 recruitment assay (PathHunter), S1P1 CHO-K1 cells; type: cell-based; conditions: for Emax: CHO-K1, efficacy (SPAN) normalized to fingolimod, read-out: hS1P1 B-arrestin2 SPAN
In short: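 Enzyme-fragment complementation read-out: agonist-driven β-arrestin2 binding to ProLink-tagged human S1P1 in stable CHO-K1 cells restores β-galactosidase, measured 1 h at room temperature after a 60 min 37° C. compound incubation. Potency as pEC50, efficacy relative to fingolimod (SPAN).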
Target sequence in this assay (P21453 whole entry, looked up): as above
Target sequence in this assay (P32121 whole entry partner, looked up): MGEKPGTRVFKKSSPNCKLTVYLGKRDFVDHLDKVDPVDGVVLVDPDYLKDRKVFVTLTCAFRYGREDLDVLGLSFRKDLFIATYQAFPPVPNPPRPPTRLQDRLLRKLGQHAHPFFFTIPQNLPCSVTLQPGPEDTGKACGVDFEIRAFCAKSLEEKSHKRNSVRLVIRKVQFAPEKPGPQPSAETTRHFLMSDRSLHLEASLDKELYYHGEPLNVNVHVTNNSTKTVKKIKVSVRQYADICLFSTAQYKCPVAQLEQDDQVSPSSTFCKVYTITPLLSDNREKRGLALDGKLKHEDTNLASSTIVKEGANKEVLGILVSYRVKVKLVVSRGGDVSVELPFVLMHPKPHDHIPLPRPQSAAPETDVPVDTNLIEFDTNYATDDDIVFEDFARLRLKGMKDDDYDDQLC

[3] = test system: paclitaxel induced peripheral neuropathy; test: Reversal of allodynia induced by paclitaxel in mice (s.c. or p.o., von Frey frequency method); type: in vivo, c57bl/6 mice; conditions: Mus musculus, po, 1 h, 3 mg/kg p.o., tested 60 min after dosing, read-out: Screen @ 3 mg/kg po (% MPE)
Method: Compounds were tested for efficacy in mouse models of chemotherapy induced peripheral neuropathy. […] For these studies […]/6 mice are habituated to the test environment and baseline measurements of pain sensitivity are assessed. To determine mechanical responses, the threshold for responses to punctate mechanical stimuli (mechanical hyperalgesia) was tested according to the frequency method. In brief, the plantar surface of the animal hindpaw was stimulated with a single von Frey monofilament (0.4 g) for approximately 1-2 seconds. If there was a withdrawal response, it was recorded as a positive response. A response was defined as a lifting or shaking of the paw upon stimulation. This was repeated ten times for each mouse. The final measurement for each mouse is the % non-response to stimulation for the ten trials. The % non-response to stimulation is converted to a % MPE. For paclitaxel induced peripheral neuropathy, a series of injections of PAC (6 mg/kg, i.p.) on days 1, 3, 5 and 7 is used to induce peripheral neuropathy. After approximately 14 days from the initiation of PAC injections, animals are re-assessed for mechanical sensitivity. […] On test day animals are dosed with compounds either subcutaneously or orally and tested for mechanical response by the frequency method either 30 min (s.c.) or 60 min (p.o.) after drug administration. Data is presented as a % MPE. For oxaliplatin induced peripheral neuropathy, a series of injections of OXA (4 mg/kg, i.p.) on days 1-5 is used to induce peripheral neuropathy. After approximately 14 days from the initiation of PAC injections, animals are re-assessed for mechanical sensitivity. […] On test day animals are dosed with compounds subcutaneously and tested for mechanical response by the frequency method 30 min after drug administration. Data is presented as a % MPE. One or more of the compounds show reversal of chemotherapeutic induced peripheral neuropathy.

[4] = inhibition of cAMP production, S1P1 CHO-K1 cells
[5] = β-arrestin2 recruitment, S1P1 CHO-K1 cells

Structure (SMILES)	Emax [1] [%]	hS1P1 cAMP pEC50 [1, 4]	Emax [2] [%]	hS1P1 B-arrestin2 pEC50 [2, 5]	EC50 ([1]; inhibition of cAMP production, S1P1 CHO-K1 cells, read-out: hS1P1 cAMP pEC50 (converted)) [µM]	EC50 ([2]; β-arrestin2 recruitment, S1P1 CHO-K1 cells, read-out: hS1P1 B-arrestin2 pEC50 (converted)) [µM]	inhibition in vivo at 3 mg/kg [3] [%]
Cc1ccncc1-c1nc(-c2ccc3c(c2)nnn3C(C)(C)CO)no1 [Compound 625, 2-methyl-2-(5-(5-(4-methylpyridin-3-yl)-1,2,4-oxadiazol-3-yl)-1H-benzo[d][1,2,3]triazol-1-yl)propan-1-ol]	< 75	<6.5	< 75	<5	–	–	–
CC(C)(CO)n1nnc2cc(-c3noc(-c4ccncc4C(F)(F)F)n3)ccc21 [Compound 626, 2-methyl-2-(5-(5-(3-(trifluoromethyl)pyridin-4-yl)-1,2,4-oxadiazol-3-yl)-1H-benzo[d][1,2,3]triazol-1-yl)propan-1-ol]	–	<6.5	–	<5	–	–	–
COc1cccnc1-c1noc(-c2ccc3c(c2)nnn3C(C)C)n1 [Compound 627, 5-(1-isopropyl-1H-benzo[d][1,2,3]triazol-5-yl)-3-(3-methoxypyridin-2-yl)-1,2,4-oxadiazole]	> 75	<6.5	> 75	<5	–	–	–
CC(C)Nc1ccc(-c2ncc(-c3ccc4[nH]c(=O)[nH]c4c3)cn2)cc1C#N [Compound 628, 2-(isopropylamino)-5-(5-(2-oxo-2,3-dihydro-1H-benzo[d]imidazol-5-yl)pyrimidin-2-yl)benzonitrile]	–	>6.5	–	>5	–	–	–
O=C1CNc2ccc(-c3nc(-c4cccnc4)no3)cc2N1 [Compound 629, 7-[3-(pyridin-3-yl)-1,2,4-oxadiazol-5-yl]-1,2,3,4-tetrahydroquinoxalin-2-one]	–	<6.5	–	<5	–	–	–
CCCC1CC(=O)c2ccc(-c3nc(-c4cccnc4)no3)cc2O1 (stereo not shown) [Compound 630, 2-propyl-7-[3-(pyridin-3-yl)-1,2,4-oxadiazol-5-yl]-3,4-dihydro-2H-1-benzopyran-4-one]	–	<6.5	–	<5	–	–	–
CCCCC1CC(=O)c2ccc(-c3nc(-c4cccnc4)no3)cc2O1 (stereo not shown) [Compound 633, 2-butyl-7-[3-(pyridin-3-yl)-1,2,4-oxadiazol-5-yl]-3,4-dihydro-2H-1-benzopyran-4-one]	–	<6.5	–	<5	–	–	–
Cn1cnc2ccc(-c3nnc(-c4ccc(NC(C)(C)CO)c(C#N)c4)o3)cc21 [Compound 634, 2-[(1-hydroxy-2-methylpropan-2-yl)amino]-5-[5-(1-methyl-1H-1,3-benzodiazol-6-yl)-1,3,4-oxadiazol-2-yl]benzonitrile]	–	<6.5	–	<5	–	–	–
Cn1cnc2ccc(-c3nnc(-c4ccc(NCC(F)(F)CO)c(C#N)c4)o3)cc21 [Compound 635, 2-[(2,2-difluoro-3-hydroxypropyl)amino]-5-[5-(1-methyl-1H-1,3-benzodiazol-6-yl)-1,3,4-oxadiazol-2-yl]benzonitrile]	–	>6.5	–	>5	–	–	–
CC(C)Nc1ccc(-c2nnc(-c3ccc4c(c3)C(=O)NCC4)o2)cc1C#N [Compound 638, 5-[5-(1-oxo-1,2,3,4-tetrahydroisoquinolin-7-yl)-1,3,4-oxadiazol-2-yl]-2-[(propan-2-yl)amino]benzonitrile]	–	>6.5	–	<5	–	–	–
CCC1(CC)CC(=O)c2cc(-c3nc(-c4ccncn4)no3)ccc2O1 [Compound 639, 2,2-diethyl-6-(3-(pyrimidin-4-yl)-1,2,4-oxadiazol-5-yl)chroman-4-one]	–	<6.5	–	<5	–	–	–
CCC1(CC)CC(=O)c2cc(-c3nc(-c4ncccn4)no3)ccc2O1 [Compound 640, 2,2-diethyl-6-(3-(pyrimidin-2-yl)-1,2,4-oxadiazol-5-yl)chroman-4-one]	–	<6.5	–	<5	–	–	–
Cc1nccnc1-c1nc(-c2ccc3c(c2)nnn3C(C)(C)CO)no1 [Compound 641, 2-methyl-2-(5-(5-(3-methylpyrazin-2-yl)-1,2,4-oxadiazol-3-yl)-1H-benzo[d][1,2,3]triazol-1-yl)propan-1-ol]	< 75	<6.5	< 75	<5	–	–	–
CC(C)(CO)n1nnc2cc(-c3noc(-c4ccc5nc[nH]c5c4)n3)ccc21 [Compound 642, 2-(5-(5-(1H-benzo[d]imidazol-6-yl)-1,2,4-oxadiazol-3-yl)-1H-benzo[d][1,2,3]triazol-1-yl)-2-methylpropan-1-ol]	–	<6.5	–	<5	–	–	–
CC(C)(CO)n1nnc2cc(-c3noc(-c4cccnc4F)n3)ccc21 [Compound 643, 2-(5-(5-(2-fluoropyridin-3-yl)-1,2,4-oxadiazol-3-yl)-1H-benzo[d][1,2,3]triazol-1-yl)-2-methylpropan-1-ol]	> 75	<6.5	< 75	<5	–	–	–
CC(C)(CO)n1nnc2cc(-c3noc(-c4cnccc4C(F)(F)F)n3)ccc21 [Compound 644, 2-methyl-2-(5-(5-(4-(trifluoromethyl)pyridin-3-yl)-1,2,4-oxadiazol-3-yl)-1H-benzo[d][1,2,3]triazol-1-yl)propan-1-ol]	> 75	<6.5	> 75	<5	–	–	–
O=C1CNc2ccc(-c3nc(-c4cn[nH]c4)no3)cc2N1 [Compound 645, 7-[3-(1H-pyrazol-4-yl)-1,2,4-oxadiazol-5-yl]-1,2,3,4-tetrahydroquinoxalin-2-one]	–	<6.5	–	<5	–	–	–
CC(C)n1nnc2cc(-c3nc(-c4cn[nH]c4)no3)ccc21 [Compound 646, 1-(propan-2-yl)-5-[3-(1H-pyrazol-4-yl)-1,2,4-oxadiazol-5-yl]-1H-1,2,3-benzotriazole]	< 75	–	> 75	–	> 0.316	> 10	–
COc1ccc(-c2noc(-c3ccc4c(c3)nnn4CC(C)(C)O)n2)c(C)c1 [Compound 647, 1-{5-[3-(4-methoxy-2-methylphenyl)-1,2,4-oxadiazol-5-yl]-1H-1,2,3-benzotriazol-1-yl}-2-methylpropan-2-ol]	> 75	>6.5	> 75	>5	–	–	–
N#Cc1cc(-c2nc(-c3ccc4[nH]c(=O)oc4c3)no2)ccc1NCC1CC1 [Compound 726, 2-(cyclopropylmethylamino)-5-[3-(2-oxo-3H-1,3-benzoxazol-6-yl)-1,2,4-oxadiazol-5-yl]benzonitrile]	–	–	–	–	–	–	> 50
N#Cc1cc(-c2nc(-c3ccc4c(c3)CNC4=O)no2)ccc1NCC1CC1 [Compound 727, 2-((cyclopropylmethyl)amino)-5-(3-(1-oxoisoindolin-5-yl)-1,2,4-oxadiazol-5-yl)benzonitrile]	–	–	–	–	–	–	> 50
CC(C)Nc1ccc(-c2nc(-c3ccc4[nH]c(=O)[nH]c4c3)no2)cc1C#N [Compound 728, 2-(isopropylamino)-5-(3-(2-oxo-2,3-dihydro-1H-benzo[d]imidazol-5-yl)-1,2,4-oxadiazol-5-yl)benzonitrile]	–	–	–	–	–	–	> 50
